Experimental data from EP2230235A1, “Botryosphaerones, novel depsidones and their use as medicaments” (Leibniz-Institut für Naturstoff-Forschung und …, priority 2009, dated 2010).
≈ marks a conversion by molar mass, not a printed value. Like-named read-outs stand apart in the source and are kept apart here.

Assays:
Format in all cases: cell-based
HUVEC = experiment: Antiproliferative assay (methylene blue staining); conditions: Homo sapiens
Procedure: (§1) Antiproliferative and Cytotoxic Assays: Cells and culture conditions. Cells of HUVEC (ATCC CRL-1730), K-562 (DSM ACC 10) and HeLa (DSM ACC 57) were cultured in DMEM (CAMBREX 12-[…]), RPMI 1640 (CAMBREX 12-[…]) and RPMI 1640 (CAMBREX 12-[…]) respectively. All cells were grown in the appropriate cell culture medium supplemented with 10 mL L^-1 ultraglutamine 1 (Cambrex 17-[…]/U1), 500 μ[…] gentamicin sulfate (CAMBREX 17-518Z), and 10 % heat inactivated fetal bovine serum (PAA A15-144) at 37 °C in high density polyethylene flasks (NUNC 156340). Antiproliferative assay. The test substances were dissolved in DMSO before being diluted in DMEM. The adherent cells were harvested at the logarithmic growth phase after soft trypsinization, using 0.25 % trypsin in PBS containing 0.02 % EDTA (Biochrom KG L 2163). For each experiment, approximately 10.000 cells were seeded with 0.1 mL culture medium per well of the 96-well microplates (NUNC 167008). Method of evaluation. For estimating the influence of chemical compounds on cell proliferation of K-562, the numbers of viable cells present in multiwell plates were determined via CellTiter-Blue® assay. The indicator dye resazurin was used to measure the metabolic capacity of cells as an indicator of cell viability. […] The optical densities were measured at 660 nm in SUNRISE microplate reader (TECAN). […]

HeLa = experiment: Cytotoxic assay (methylene blue staining); conditions: Homo sapiens, 72 hours incubation, read-out: Cytotoxicity CC50 (HeLa)
Procedure: Antiproliferative and Cytotoxic Assays: Cells and culture conditions. Cells of HUVEC (ATCC CRL-1730), K-562 (DSM ACC 10) and HeLa (DSM ACC 57) were cultured in DMEM (CAMBREX 12-614F), RPMI 1640 (CAMBREX 12-167F) and RPMI 1640 (CAMBREX 12-167F) respectively. All cells were grown in the appropriate cell culture medium supplemented with 10 mL L^-1 ultraglutamine 1 (Cambrex 17-605E/U1), 500 µL L^-1 gentamicin sulfate (CAMBREX 17-518Z), and 10 % heat inactivated fetal bovine serum (PAA A15-144) at 37 °C in high density polyethylene flasks (NUNC 156340).
Cytotoxic assay. For the cytotoxic assay, HeLa cells were pre-incubated for 48 hours without the test substances. The dilutions of the compounds were carried out carefully on the subconfluent monolayers of HeLa cells after the pre-incubation time. Cells were incubated with dilutions of the test substances for 72 hours at 37 °C in a humidified atmosphere and 5 % CO2.
Method of evaluation. For estimating the influence of chemical compounds on cell proliferation of K-562, the numbers of viable cells present in multiwell plates were determined via CellTiter-Blue® assay. The indicator dye resazurin was used to measure the metabolic capacity of cells as an indicator of cell viability. […] The optical densities were measured at 660 nm in SUNRISE microplate reader (TECAN). […]

Aspergillus terreus = experiment: MIC determination, broth microdilution method (NCCLS guidelines); conditions: A. terreus; for antimicrobial efficacy: result in words; for MIC: broth microdilution, 37°C, 24 h
Text: (§2) Antifungal activities were studied qualitatively by agar diffusion tests according to the literature (Stuttgart, D. A. V., European Pharmacopoeia, 3rd ed.1997, 13, 118; Afonin, S.; Glaser, R. W.; Berditchevskaia, M.; Wadhwani, P.; Guhrs, K. H.; Mollmann, U.; Perner, A.; Ulrich, A. S. Chembiochem. 2003, 4, (11), 1151-1163; Standards, N. C. f. C. L., Reference Method for Broth Dilution Susceptibility Testing of Filamentous Fungi; Approved Standard. M38-A, Wayne, PA, USA, NCCls 2002, 22) and quantitatively by determination of minimal inhibitory concentration (MIC) according to the NCCLS guidelines using the broth microdilution method. Fifty microliters of the test compound solution in methanol were serially diluted by factor two with the culture medium (RPMI 1640 with L-glutamine, MOPS and without sodium bicarbonate, LONZA Verviers SPRL, Belgium). Then, the wells were inoculated with 50 µL of the test organism to give a final concentration of 6x10^3 CFU mL^-1. After incubation of the microtiter plates at 37°C (Aspergillus terreus) for 24 h, the MIC-values were read with a Nepheloscan Ascent 1.4 automatic plate reader (Lab systems, Vantaa, Finnland) as the lowest dilution of compound allowing no visible growth. The MIC for Fusarium oxysporum and Bacillus subtilis was determined by the agar diffusion method. Fifty microliters of each of the 12 serial twofold dilutions were filled in agar (malt extract agar from Roth, Karlsruhe, Germany; seeded with 0.5 mL of a pretested mycelial solution) holes of 9 mm in diameter. After incubation for 24 h the MIC was read as the lowest concentration giving an inhibition zone.

Fusarium oxysporum = experiment: MIC determination, agar diffusion method; conditions: 24 h
Text: as §2, with “Fifty microliters of each of the 12 serial twofold dilutions were filled in agar (malt extract agar from Roth, Karlsruhe, Germany; seeded with 0.5 mL of a pretested mycelial solution) holes of 9 mm in diameter. After incubation for 24 h the MIC was read as the lowest concentration giving an inhibition zone.” left out

K-562 = experiment: Antiproliferative assay (CellTiter-Blue); conditions: Homo sapiens, K562; read-out: Gl50 (K-562)
Procedure: as §1

Bacillus subtilis = experiment: MIC determination / antibacterial activity, agar diffusion method; conditions: for antimicrobial efficacy / antibacterial activity: B. subtilis, result in words
Text: as §2

[1] = Aspergillus terreus, read-out: MIC

Compound	GI50 (HUVEC) [µM]	CC50 (HeLa) [µM]	antimicrobial efficacy (Aspergillus terreus)	MIC (Aspergillus terreus; [1]) [µg/mL]	MIC (Fusarium oxysporum) [µg/mL]	GI50 (K-562) [µM]	antimicrobial efficacy / antibacterial activity (Bacillus subtilis)	MIC (Bacillus subtilis; Bacillus subtilis, 24 h) [µg/mL]	antibacterial activity (Bacillus subtilis; Bacillus subtilis, agar diffusion assays, 400 µg mL^-1)	MIC (Aspergillus terreus) [µg/mL]
Cc1cc(O)c(C)c2c1Oc1c(C=O)c(O)cc(C)c1C(=O)O2 [Compound 2, Botryosphaerone B]	0.07	36.4	active	15.6 (≈ 49.7 µM)	75 (≈ 239 µM)	0.003	active			
Cc1cc(O)c(C)c2c1Oc1c(CO)c(O)cc(C)c1C(=O)O2 [Compound 3, botryosphaerone C]							antibacterial activity	400 (≈ 1260 µM)	antibacterial activity	
botryosphaerone D [Compound 4]							antibacterial activity			
C[C@@H]1[C@H](O)[C@@H](C)/C=C/C=C/CC/C=C/C=C/C=C/C=C/C(O[C@H]2O[C@H](C)[C@@H](O)[C@H](N)[C@@H]2O)CC2O[C@](O)(CC(O)C(O)CCC(O)CC(O)CC(O)CC(=O)O[C@H]1C)CC(O)C2C(=O)O (stereo partly shown) [nystatin, reference compound]										12.50 (≈ 13.5 µM)
Cc1cc(O)cc2c1Oc1c(C=O)c(O)cc(C)c1C(=O)O2 [Compound 1, botryosphaerone A]	1.67	97	active	7.81 (≈ 26 µM)	57.5 (≈ 191 µM)	0.84	active			
